Consider 15 substances from article PMC3169616, “Unique Residues Involved in Activation of the Multitasking Protease/Chaperone HtrA from Chlamydia trachomatis” (PLoS ONE, 2011).

No end group written: not given here. *: point of attachment. pNA = O=[N+]([O-])c1ccc(N*)cc1

Assay [1] addresses T1, CtHtrA (Chlamydia trachomatis serovar D, UniProt P18584).
T1 construct: His-tag; made in house; host or cells: E. coli BL21 (DE3), plasmid pETHtrA
T1 sequence (P18584 17-497): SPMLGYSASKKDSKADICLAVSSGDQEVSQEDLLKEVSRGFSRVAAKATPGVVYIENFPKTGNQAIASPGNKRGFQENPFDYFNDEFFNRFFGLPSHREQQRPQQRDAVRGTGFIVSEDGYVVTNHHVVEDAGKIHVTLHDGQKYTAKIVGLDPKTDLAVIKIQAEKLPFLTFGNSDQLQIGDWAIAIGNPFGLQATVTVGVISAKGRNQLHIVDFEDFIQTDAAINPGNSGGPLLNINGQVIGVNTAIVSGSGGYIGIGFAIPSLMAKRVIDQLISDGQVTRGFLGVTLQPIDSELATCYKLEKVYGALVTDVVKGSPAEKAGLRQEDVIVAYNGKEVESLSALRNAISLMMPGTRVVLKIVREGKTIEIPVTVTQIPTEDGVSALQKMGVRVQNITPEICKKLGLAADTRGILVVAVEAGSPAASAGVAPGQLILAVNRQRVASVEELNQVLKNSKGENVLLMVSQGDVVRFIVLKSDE
Kind of assay: Protease assay and kinetic analysis with pNA-labelled peptide substrates. The class given is biochemical. To be noted: pNA peptide as substrate, absorbance 405 nm, 37°C; for Vmax: reading every 10 s for 30 min. Here is the method: A series of peptide substrates were then designed based on the cleavage sites previously identified in ß-casein [3], PICS results, previously published substrates for E. coli DegP [22], and the REPLi library screening results. These peptides were assayed against CtHtrA and kinetic analysis was conducted (Table 2). […] Generally, peptides with only 4 residues or less were not cleaved. […] The preference for K at P3 implies a salt bridge may be involved in substrate coordination in the CtHtrA active site in the substrate pocket or subsite S3. In a direct comparison between MFRLI-pNA and MFQLI-pNA, R was clearly the most preferred. […] The Km for each of these, however, was at least an order of magnitude higher than the Km for MFKLI-pNa. The results from individually synthesised peptides (Table 2) and the peptides sourced from the REPLi library (Table 1) were consistent in that non-polar sequences are most preferred. […] (Fig. S3).
The purified recombinant protein was examined by Coomassie stained polyacrylamide gels and activity was checked using ß-casein cleavage assays prior to use in peptide assays. Briefly, this involved incubating 2 µg of the protease with 10 µg of ß-casein in 50 mM Tris pH 7.0, 20 mM MgCl2 for 2 h prior to examining the assays by SDS PAGE (ß-casein and protease only controls were always conducted). Protease assays using peptides were conducted using custom synthesised peptides (Mimotopes). The peptides were purified to 95% purity (or greater) and were typically resuspended in 50% isopropanol, although some peptides required 100% DMSO. Protease assays using pNA labelled peptides were conducted using the xMARK Microplate spectrophotometer (Bio-Rad) at 405 nm, incubated at 37°C, with a reading taken every 10 s for 30 min. The maximum slope over a minimum of 8 readings was used for the data analysis. Other peptides were labelled with 7-methoxycoumarin-4-acetic acid (MCA, fluorophore) and 2,4-dinitrophenyl (DNP, quencher). The protease assays using these peptides were conducted in black plates at 37°C using the POLARstar Optima (BMG Labtech). The assays were excited at 340 nm and emission was detected at 405 nm with a gain of 1000, the assays were monitored every 20 s or at the minimum cycle time for up to 40 min. The Omega software was used to calculate the maximum rate from a minimum of 6 time points for each assay. The REPLi library of peptides (Mimotopes, Melbourne, Australia) was also assayed with CtHtrA in the POLARstar Optima using similar assay conditions to those described above. Substrate only and protease only assay controls were conducted for every experiment and protease assays were typically conducted in triplicate on at least two different days. The assay results shown are the maximal rate observed from three or more different assays and adjusted for protein concentration. The assay results shown for the fluorescent compounds have been normalised for the amount of fluorescent emission detected using a standard curve of known concentrations of the MCA fluorophore under the identical assay conditions. All of the peptides used in this work were synthesised commercially to 95% purity or greater (Mimotopes, Melbourne, Australia). All protease assays were conducted minimally in duplicate on three separate occasions.

For assay [2], the target named is T1, CtHtrA. Description: MS and MS-MS analysis of peptide cleavage products. The class given is biochemical. The settings on record: peptide 150 µM digested with CtHtrA (71 µg); sites MCA-ENLH↓LPLPI↓IF-DNP. Here is the method: Bcas1 and Act1 peptides (150 µM concentration) digested with CtHtrA (71 µg) were analysed by online LC/MS/MS using a QStar Pulsar I (Applied Biosystems) in […] mode. Data acquired were converted into mzXML format using proteowizard (v2) and searched using ([…], the global proteome machine, ftp://ftp.thegpm.org/fasta/cRAP), against CtHtrA and Act1 and Bcas1 peptide sequences with an included decoy database of the reverse sequence for each protein. The search also included potential mass modifications accounting for the additional […] moieties on the N and C peptide termini, respectively. Matches with an expected ratio of <1 were considered identified. All raw data and mass spectra can be made available on request.

Assay [3] has as its target T1, CtHtrA. Description: Oligomerisation assay (glutaraldehyde crosslinking, 3-8% TrisAcetate gel, silver stain). The assay is classed as biochemical. To be noted: wild type CtHtrA 2 mg/ml, 100 mM sodium phosphate pH 7.0, 10 mins at 37°C, 0.5% glutaraldehyde fixation. Here is the method:
(§1) E. coli DegP proteolysis activation involves the transition from resting hexamers via trimers to 12- and 24-mers following the peptide activator binding to the PDZ1 binding cleft. CtHtrA oligomer formation induced by Act1 addition was examined after incubation for 10 mins at 37°C. The wild type and mutant proteins were incubated with either the ß-casein based activator peptide (Act1), or with whole insulin (intact), or in the absence of any activator as a control. CtHtrA incubated in the absence of any added activators formed 24-mers with some hexamers detected after 10 mins (Fig. 5). […] The R299W mutant was present as hexamer and 24-mer in the control with no activator. […] The L302N mutant was not detected in any higher oligomeric form under any conditions. L302N was detected as faint hexamer and trimer but mostly monomer under all tested conditions (not visible on these gels). […] I365D was detected as hexamers, trimers, 12-mers, and some 24-mers when incubated in the absence of activators.
(§2) The oligomerisation of HtrA into 12- and 24-mer complexes has been independently detected for E. coli HtrA (DegP). The oligomerisation of HtrA (DegP) was triggered by peptides from digested ß-casein [18]. Assays to detect whether CtHtrA and site directed mutant protein oligomerisation was triggered by substrates were conducted essentially as previously described (Merdanovic et al., 2010). Briefly, 2 mg/ml protein solutions in 100 mM sodium phosphate buffer pH 7.0 were pre-incubated to the required temperature. The ligands (activator peptide, or insulin) were added and at 10 min, and the proteins were fixed using 0.5% glutaraldehyde. Samples were fixed at room temperature for 2 min prior to addition of 1 M Tris pH 7.5 to remove any excess glutaraldehyde. Samples were incubated for another 10 min at room temperature prior to addition of SDS PAGE reducing loading buffer. The protein samples were examined on 3–8% TrisAcetate gradient polyacrylamide gels (Novex, Invitrogen) by silver staining. The proteins used in this study were not initially denatured by treatment with urea as, the refolding, formation of oligomers, and protease activity was never successfully detected with denatured CtHtrA. All assays were conducted in duplicate on three separate occasions with at least two gels of each experiment completed for each assay condition.

The next assay deals with CtHtrA R299W. Kind of assay: Oligomerisation assay, mutated protein. The assay is classed as biochemical, Chlamydia trachomatis. The settings on record: R299W mutant, 10 mins incubation. Here is the method: as §1, §2
For the next assay, the system named is CtHtrA R373A. Kind of assay: Oligomerisation assay, mutated protein. The assay is classed as biochemical, Chlamydia trachomatis. The settings on record: R373A mutant, 10 mins incubation. Here is the method: as §1, §2
Another assay concerns CtHtrA R373A/R299W. Description: Oligomerisation assay, mutated protein. The settings on record: R373A/R299W mutant, 10 mins incubation. The assay is classed as biochemical, Chlamydia trachomatis.
Excerpt: This activation was very similar to that observed for CtHtrA, and was the only condition during which any of the mutated proteins oligomerised in a similar profile to CtHtrA.
as §2, with “All assays were conducted in duplicate on three separate occasions with at least two gels of each experiment completed for each assay condition.” left out

Assay [4] deals with T1, CtHtrA. Kind of assay: Activation of CtHtrA cleavage of Bcas1 substrate by added activator. The assay is classed as biochemical. To be noted: substrate Bcas1 (MCA-ENLHLPLPIIF-DNP), fluorimetric, 37°C. Here is the method: To determine if the addition of a second peptide to the protease assays could activate or increase CtHtrA proteolysis, two activator peptides were tested in the CtHtrA cleavage of the model ß-casein peptide substrate Bcas1. The first was based on the ß-casein C-terminal sequence (Act1: NH2-VLGPVRGPFPIIV-OH) and the second on insulin b chain C-terminal sequence (Act2: NH2-CGELGFFYTP-OH).
Finally, in order to determine if the 24-mer (highest amount with MOMP protein, or Act1), or 12-mer, or both, corresponds to enhanced protease activity, the incubations of CtHtrA and these potential in vivo activators were used for protease assays with the Bcas1 substrate (Fig. 6). […] The presence of the majority of CtHtrA as higher order oligomers correlated with an increased rate of proteolysis for CtHtrA, particularly when these oligomers were predominately 24-mers.
The purified recombinant protein was examined by Coomassie stained polyacrylamide gels and activity was checked using ß-casein cleavage assays prior to use in peptide assays. Briefly, this involved incubating 2 µg of the protease with 10 µg of ß-casein in 50 mM Tris pH 7.0, 20 mM MgCl2 for 2 h prior to examining the assays by SDS PAGE (ß-casein and protease only controls were always conducted). Protease assays using peptides were conducted using custom synthesised peptides (Mimotopes). […] Protease assays using pNA labelled peptides were conducted using the xMARK Microplate spectrophotometer (Bio-Rad) at 405 nm, incubated at 37°C, with a reading taken every 10 s for 30 min. The maximum slope over a minimum of 8 readings was used for the data analysis. […] The assays were excited at 340 nm and emission was detected at 405 nm with a gain of 1000, the assays were monitored every 20 s or at the minimum cycle time for up to 40 min. […] The assay results shown for the fluorescent compounds have been normalised for the amount of fluorescent emission detected using a standard curve of known concentrations of the MCA fluorophore under the identical assay conditions. […]

With “DPMFKLP-pNA [Model E. coli substrate, P at P1]”, at CtHtrA [1], the Km (as a rule, the concentration of substrate that gives half-maximal velocity) turned out to be 3870 µM and the Vmax is listed as 2.917 mM sec^−1, µM CtHtrA^−1.

As for “DPMFKQT-pNA [Model E. coli substrate, change P1 and P2]”, on CtHtrA [1], the Kcat/Km stood at 542.2 M⁻¹ s⁻¹; the Michaelis constant (Km) was determined as 9.38 µM; the Vmax is 0.3165 mM sec^−1, µM CtHtrA^−1.

Turning to “DPMFKLV-pNA [previously published E. coli DegP substrate [22], reference compound]”, on CtHtrA [1], the Kcat/Km was determined as 241.2 M⁻¹ s⁻¹; the Michaelis constant (Km) was determined as 323 µM; the Vmax is 4.678 mM sec^−1, µM CtHtrA^−1.

As for “MCA-ENLHLPLPIIF-DNP [Bcas1, model ß-casein peptide substrate based on a ß-casein cleavage site]”, the “cleavage sites observed by LC-MS-MS” value at CtHtrA [2] is “Two cleavage sites”.

Turning to “DPMFKLI-pNA [Model E. coli substrate, I at P1]”, on CtHtrA [1], the Michaelis constant (Km) is 527 µM and the Vmax is 10.340 mM sec^−1, µM CtHtrA^−1.

As to “DMPFKLT-pNA [Model E. coli substrate, T at P1]”, at CtHtrA [1], the Kcat/Km worked out at 158.7 M⁻¹ s⁻¹; the Km is 940 µM; the Vmax is on record as 8.955 mM sec^−1, µM CtHtrA^−1.

Turning to H-HDVLSPSLDEINVP-OH [PyKinC], on CtHtrA [3], the “CtHtrA oligomer formation induced by activator” value is “activated mainly trimer formation with some 12-mer present”.

MFKLI-pNA: on CtHtrA [1], the Kcat/Km amounted to 1084.8 M⁻¹ s⁻¹; the Michaelis-Menten constant (Km) was found to be 62 µM; the Vmax is given as 4.046 mM sec^−1, µM CtHtrA^−1.

“insulin: previously demonstrated in vitro chaperone substrate of CtHtrA [reference compound]”: the “oligomer formation induced by activator” value with CtHtrA R299W was “mainly hexamer”; in the assay with CtHtrA R373A, “mainly detected as hexamer”; in the assay on CtHtrA R373A/R299W, “did not form a similar profile of oligomers as wild-type CtHtrA”. The “CtHtrA oligomer formation induced by activator” value in the assay with CtHtrA [3] is listed as “activated to 24-mers with little hexamer visible”.

On to “PMFKLI-pNA [pNA peptide substrate, 1 residue less]”, for which, on CtHtrA [1], the Kcat/Km stood at 526.7 M⁻¹ s⁻¹; the Km was 314 µM; the Vmax is on record as 9.931 mM sec^−1, µM CtHtrA^−1.

On to “H-AESNFKMLEIEAE-OH [CtL0043, C-terminal 13 residues of outer membrane ß-barrel CtL0043]”, for which the “CtHtrA oligomer formation induced by activator” value at CtHtrA [3] is listed as “activated mainly trimer formation with some 12-mer present”.

“DPMFKLL-pNA [Model E. coli substrate, L at P1]”: at CtHtrA [1], the Km is 883 µM and the Vmax is on record as 3.179 mM sec^−1, µM CtHtrA^−1.

As to “MFQLI-pNA [pNA peptide substrate, P3 modification]”, on CtHtrA [1], the Kcat/Km turned out to be 21.2 M⁻¹ s⁻¹; the Michaelis-Menten constant (Km) came out at 141 µM; the Vmax is on record as 0.1796 mM sec^−1, µM CtHtrA^−1.

As for “MFRLI-pNA [pNA peptide substrate, P3 modification]”, on CtHtrA [1], the Kcat/Km turned out to be 106.22 M⁻¹ s⁻¹; the Km worked out at 2910 µM; the Vmax is given as 18.53 mM sec^−1, µM CtHtrA^−1.

With “H-LAHMMNCGARMIF-OH [PmpC, C-terminal 13 residues of outer membrane ß-barrel PmpC]”, at CtHtrA [4], the “effect of activator on rate of CtHtrA proteolysis of Bcas1” value is listed as “did not increase the rate of proteolysis of Bcas1”. Also, the “CtHtrA oligomer formation induced by activator” value on CtHtrA [3] was “activated the formation of 12-mer”.
